Measurements from patent publication US20240423968A1, “USE OF PROTEASOME-TARGETING SMALL MOLECULES TO MITIGATE MUSCLE WASTING” (The Board of Regents of the University of Texas System, priority 2023, published 2024).
Like-named read-outs stand apart in the source and are kept apart here.

Assays:
[1] = tested on: C2C12 cells; assay: Principal component analysis of AFM-assessed mechanical parameters of model myotubes; assay type: cell-based, mouse; conditions: C2C12 cells treated with TNFα plus compound
Description: (§1) Cultured cells growing on dishes were scanned with a Catalyst Atomic Force Microscope (Bruker) mounted on a Nikon Ti inverted epifluorescent microscope. Nanomechanical parameters of cells were collected in the Quantitative Nanomechanical Mapping (PF-QNM) mode of the AFM. Before AFM imaging, optical images were recorded for each cell. SCANASYST-AIR probes were used for imaging after their spring constant was determined with the thermal tuning. Cell boundaries were located with peak force error (PFE) AFM images and further verified with height images. Nanomechanical parameters of cells were captured in three separate PF-QNM channels: elasticity (or stiffness—the Young's modulus), deformation and adhesion. Analysis of these parameters was performed with NanoScope Analysis software v. 1.7 (Osmulski, P. A., et al., Cancer Res. 2021 Aug. 1; 81(15):4110-4123). Force curves were fit to the Sneddon model. Mode values of the mechanical parameters for individual cells were calculated from the corresponding distribution histograms. The Texture Aspect Ratio, as a measure of the spatial isotropy or directionality of the surface texture was calculated from the square height images of cells after applying the first order flatten function (Roughness Analysis in NanoScope Analysis v. 1.7).
Mouse C2C12 myoblasts were purchased in American Tissue Type Collection (ATCC CRL-1772) were cultured in Dulbecco's modified Eagle's medium (DMEM) supplementec with 15% fetal bovine serum (FBS) and penicillin/streptomycin, at 37° C. and 5% CO2. […]
Principal component analysis (PCA) was utilized to evaluate the AFM-assessed mechanical parameters of model myotubes in C2C12 cells treated with TNFα alone or with compounds B1 or C3. […]

[2] = tested on: C2C12 myotubes; assay: Myotube morphology (diameters) in the TNFα-induced muscle atrophy cell culture model; assay type: cell-based, mouse; conditions: for myotube morphology when applied alongside TNFα: TNFα 15 ng/ml for 72 hours, compound added together with TNFα; for effect on cell morphology in the control: compound without TNFα
Description: Mouse C2C12 myoblasts were purchased in American Tissue Type Collection (ATCC CRL-1772) were cultured in Dulbecco's modified Eagle's medium (DMEM) supplementec with 15% fetal bovine serum (FBS) and penicillin/streptomycin, at 37° C. and 5% CO2. After reaching confluence the myoblasts were differentiated into myotubes by culturing for 72 hours under low-serum conditions (2% horse serum, 0.5 microgram/ml insulin. After that, model muscle atrophy was induced by the treatment with tumor necrosis factor alpha (TNFα) at 15 ng/ml for 72 hours. Vehicle (dimethylsulfoxide; DMSO) or desired compounds (B1, C3, bortezomib) were added to the culture medium together with TNFα.
Myotubes were visualized as described in Eric J. Stevenson, et al., Journal of Applied Physiology 2005 98:4, 1396-1406. All myotubes analyzed in randomly selected microscope fields, with three diameters per tube and at least 50 myotubes analyzed per experimental point.
The diameters of C2C12 myotubes can be utilized to look for indications of degeneration.

[3] = biological target: 20S human housekeeping proteasome (Homo sapiens, UniProt P28074); assay: 20S ChT-L proteolytic activity assay (Suc-LLVY-AMC hydrolysis, Rpt5 peptide-activated); assay type: biochemical; conditions: for activity against 20S ChT-L proteolysis, in words: SAR comparison
Description: Compounds were evaluated for proteasome activity using the 20S human housekeeping proteasome. It was activated with the Rpt5 derived 10-residue peptide that contains the C-terminal HbYX (hydrophobic-Tyr-any AA) motif activating the proteasome in trans and to some extend mimic the activation by the 19S regulatory particle (Osmulski and Gaczynska (2013) Molecular pharmacology 84: 104-113; Smith et al. (2006) J. Struct. Biol. 156: 72-83; Smith et al. (2007) Mol. Cell 27: 731-744). Proteolytic activity was monitored over time using a fluorogenic peptide substrate specific for the chymotrypsin-like active center (ChT-L, Suc-LLVY-AMC) in the presence of a concentration range of the inhibitors. In this activity assay, hydrolysis of the substrate results in release of the highly fluorescent aminomethylcoumarin fluorophore. The linear portions of the fluorescence intensity plots were used to calculate the rates of Suc-LLVY-AMC hydrolysis and an IC50 (concentration of drug at which 50% of the maximum rate inhibition occurs) is determined.

[4] = tested on: 26S holoenzyme; assay: 26S activity in lysates (in-gel activity assay, Suc-LLVY-MCA overlay); assay type: cell-based, mouse; conditions: model-wasted cells
From the text: (§2) The mechanism of the anti-wasting action of proteasome modulators can be probed by measuring the 26S activity in lysates and measuring the levels of autophagy-related protein 7 (ATG7) in lysates. Excessive activity of 26S holoenzyme bears prime responsibility for degradation of muscle proteins during wasting. […] Autophagy, alongside proteasome pathway, aggravates degeneration.

[5] = tested on: autophagy-related protein 7 (ATG7); assay: Levels of autophagy-related protein 7 (ATG7) in lysates (Western blotting); assay type: cell-based, mouse; conditions: model-wasted cells
From the text: as §2

[6] = tested on: C2C12-derived mouse myocytes; assay: Cellular AFM: cell surface isotropy (cytoskeleton organization) of model myotubes; assay type: cell-based; conditions: compound accompanies TNFα; AFM roughness analysis
Description: as §1, with “Nanomechanical parameters of cells were captured in three separate PF-QNM channels: elasticity (or stiffness—the Young's modulus), deformation and adhesion. Analysis of these parameters was performed with NanoScope Analysis software v. 1.7 (Osmulski, P. A., et al., Cancer Res. 2021 Aug. 1; 81(15):4110-4123). Force curves were fit to the Sneddon model.” left out, “1.7). […]” for “1.7).”
Cellular atomic force microscopy (AFM) of C2C12-derived mouse myocytes was utilized to show the effect of TNFα on the cytosketon organization of the myotube surface patterns (FIG. 5). The regularity of the pattern can be assessed by roughness analysis of the AFM images.
The surface isotropy parameter can quantify the regularity of the patterns observed in AFM. […]

[7] = tested on: myofibers in quadriceps of tumor-bearing mice; assay: In vivo mouse model of cancer cachexia (nude mice xenografted with PC3 cells), quadriceps myofiber diameters, H&E
Description: The mouse model of cancer-related muscle wasting consistent of nude mice xenografted with human cultured androgen-resistant prostate cancer PC3 cells. The mice were treated intra-tumorally (IT) with the vehicle (dimethylsulfoxide; DMSO); 8 control mice) or with 10 mg/kg of compound 3. Three injections per week (Mondays, Wednesdays, and Fridays) were carried for three weeks. After that, mice were sacrificed and quadriceps muscle tissues were preserved by standard formalin fixing. Muscle tissue slices were stained with hematoxilin and eosin (H&E standard staining) to visualize muscle fibers and enable myofiber diameter measurements under a standard microscope. Myofibers for 4 control (vehicle-treated) and 4 compound 3-treated mice were measured.
The quadriceps muscle in tumor-bearing mice treated with C3 […] a weeks for three weeks was compared to control using H&E-stained tissues slices (FIG. 10). Frequency analysis of diameters of myofibers (400 myofibers each) from tumor-bearing mice (4 each of the control-vehicle and c3 (10 mg/kg)) was performed (FIG. 11).

[8] = Table 2, pipecolic acid derivatives, ChT-L activity of 20S, read-out: IC50
[9] = read-out: IC50, ChT-L activity of the 20S proteasome
[10] = Table 3, proline derivatives, ChT-L activity of 20S, read-out: IC50

Question: For `COc1cc(CCCOC(=O)C2CCCCN2C(=O)C(=O)C2CCCCC2)cc(OC)c1OC` (racemic) [B1], which “AFM-assessed mechanical parameters (PCA phenotype)” value (“AFM-assessed mechanical parameters” below) [1] is on record?
Answer: Its value is “preserve the control-like phenotypes”.

Question: What about the “myotube morphology when applied alongside TNFα” value (from here on “myotube morphology”) [2] of the same molecule?
Answer: Its value is “restored the morphogy to control-like status”.

Question: And the “effect on cell morphology in the control” value [2]?
Answer: The value was “no effect on the cell morphology”.

Question: And the IC50 [3, 8]?
Answer: The IC50 was 5.8 µM.

Question: And the “26S activity in lysates” value [4]?
Answer: The value was “mitigates the activity”.

Question: What about the “autophagy (ATG7 levels in lysates)” value [5] of the same molecule?
Answer: The value was “does not affect or mitigates autophagy”.

Question: And the “cell surface patterning (surface isotropy)” value [6]?
Answer: The value was “remains control-like”.

Question: How did the IC50 [3, 9] turn out when `COc1cc(CCCOC(=O)C2CCCCN2C(=O)OCc2ccccc2)cc(OC)c1OC` (racemic) [Compound 2] was run?
Answer: The IC50 was 11.5 µM.

Question: Which “AFM-assessed mechanical parameters” value [1] does the source give for `COc1cc(CCCOC(=O)[C@@H]2CCCCN2C(=O)OCc2ccccc2)cc(OC)c1OC` [Compound 3] here?
Answer: Its value is “preserve the control-like phenotypes”.

Question: What about the “myotube morphology” value [2] of the same molecule?
Answer: Its value is “restored the morphogy to control-like status”.

Question: And the “effect on cell morphology in the control” value [2]?
Answer: The value was “no effect on the cell morphology”.

Question: What about the IC50 [3, 8] of the same molecule?
Answer: The IC50 was 2 µM.

Question: What about the IC50 [3, 9] of the same molecule?
Answer: The IC50 was 3.1 µM.

Question: What about the “26S activity in lysates” value [4] of the same molecule?
Answer: The value was “mitigates the activity”.

Question: What about the “autophagy (ATG7 levels in lysates)” value [5] of the same molecule?
Answer: The value was “does not affect or mitigates autophagy”.

Question: And the “diameters of myofibers (frequency analysis)” value ([7]; 400 myofibers each, 4 mice each, 10 mg/kg vs control-vehicle, difference significant at p<1.47×10^−21)?
Answer: The value was “Higher values of myofiber diameters”.

Question: What about the “myofiber morphology in quadriceps” value ([7]; tumor-bearing mice, 10 mg/kg intra-tumorally, three weeks, vs vehicle) of the same molecule?
Answer: Its value is “improved myofiber morphology”.

Question: What about the “cell surface patterning (surface isotropy)” value [6] of the same molecule?
Answer: The value was “remains control-like”.

Question: For `COc1cc(CCCOC(=O)[C@@H]2CCCCN2C(=O)OCC(C)C)cc(OC)c1OC` [Compound 4], which IC50 [3, 9] is on record?
Answer: Its IC50 is 15.2 µM.

Question: What does the source list for `COC(=O)N1CCCC[C@H]1C(=O)OCCCc1cc(OC)c(OC)c(OC)c1` [Compound 5]?
Answer: activity against 20S ChT-L proteolysis, in words [3]: completely abrogated activity; IC50 [3, 8]: > 50 µM

Question: With `COc1cc(CCOC(=O)[C@@H]2CCCCN2C(=O)OCc2ccccc2)cc(OC)c1OC` [Compound 6] as the molecule, how does the IC50 [3, 8] read?
Answer: Its IC50 is 20.1 µM.

Question: Which “activity against 20S ChT-L proteolysis, in words” value (shortened to “activity … in words”) [3] does the source give for `COc1cc(COC(=O)[C@@H]2CCCCN2C(=O)OCc2ccccc2)cc(OC)c1OC` [Compound 7] here?
Answer: Its value is “significantly reduced its activity”.

Question: And the IC50 [3, 8]?
Answer: The IC50 was 19.8 µM.

Question: For `O=C(OCCCc1ccccc1)[C@@H]1CCCCN1C(=O)OCc1ccccc1` [Compound 8], which “activity … in words” value [3] is on record?
Answer: Its value is “significantly reduced its activity”.

Question: And the IC50 [3, 8]?
Answer: Its IC50 is 2.6 µM.

Question: How did the IC50 [3, 8] turn out when `CCCOC(=O)[C@@H]1CCCCN1C(=O)OCc1ccccc1` [Compound 9] was run?
Answer: Its IC50 is > 50 µM.

Question: `O=C(O)[C@@H]1CCCCN1C(=O)OCc1ccccc1` [Compound 10] was tested. Which IC50 [3, 8] did it give?
Answer: The IC50 was > 50 µM.

Question: `COc1cc(CCCOC(=O)[C@@H]2CCCN(C(=O)OCc3ccccc3)C2)cc(OC)c1OC` [Compound 11] was tested. Which IC50 [3, 8] did it give?
Answer: Its IC50 is 14.7 µM.

Question: `COc1cc(CCCOC(=O)[C@@H]2CCCN2C(=O)OCc2ccccc2)cc(OC)c1OC` [Compound 12] was tested. Which “activity … in words” value [3] did it give?
Answer: Its value is “modest activity”.

Question: And the IC50 [3, 10]?
Answer: The IC50 was 23.8 µM.

Question: Which IC50 [3, 9] does the source give for `O=C(OCCCc1ccccc1)[C@@H]1CCCN1C(=O)OCc1ccccc1` [Compound 13] here?
Answer: Its IC50 is 6.6 µM.

Question: With `O=C(OCCc1ccccc1)[C@@H]1CCCN1C(=O)OCc1ccccc1` [Compound 14] as the molecule, how does the “activity … in words” value [3] read?
Answer: The value was “decreased activity”.

Question: And the IC50 [3, 10]?
Answer: Its IC50 is 19.2 µM.

Question: How did the “activity … in words” value [3] turn out when `O=C(OCc1ccccc1)[C@@H]1CCCN1C(=O)OCc1ccccc1` [Compound 15] was run?
Answer: Its value is “decreased activity”.

Question: And the IC50 [3, 10]?
Answer: The IC50 was 33.5 µM.

Question: Which “AFM-assessed mechanical parameters” value [1] does the source give for `CC(C)C[C@H](NC(=O)[C@H](Cc1ccccc1)NC(=O)c1cnccn1)B(O)O` [bortezomib, reference compound] here?
Answer: Its value is “does not protect the phenotypes”.

Question: And the “myotube morphology” value [2]?
Answer: The value was “failed to protect the myotubes”.

Question: What about the “effect on cell morphology in the control” value [2] of the same molecule?
Answer: The value was “harmed the cells”.

Question: What about the “autophagy (ATG7 levels in lysates)” value [5] of the same molecule?
Answer: Its value is “upregulates autophagy”.
